What all share (assay type): binding
Assay [1] has as its target T1, KOR (kappa-opioid receptor) (Cavia porcellus, UniProt P41144).
T1 construct: gene OPRK1; native full-length receptor in guinea pig brain membrane homogenate
The note with it: 50 mM Tris-HCl pH 7.4, 25 °C, 30 min; read-out: KOR^b / Ki ± S.E.M.
Excerpt: [3H]HS665 displacement, guinea pig brain membranes on KOR (kappa-opioid receptor)

The target in a further assay is T2, MOR (mu-opioid receptor) (Rattus norvegicus, UniProt P33535).
T2 construct: gene Oprm1; native full-length receptor in rat brain membrane homogenate
Particulars: 50 mM Tris-HCl pH 7.4, 35 °C, 45 min; read-out: MOR^a / Ki ± S.E.M.

Assay [2] deals with T3, DOR (delta-opioid receptor) (Rattus norvegicus, UniProt P33533).
T3 construct: gene Oprd1; native full-length receptor in rat brain membrane homogenate
T3 sequence (P33533 whole entry): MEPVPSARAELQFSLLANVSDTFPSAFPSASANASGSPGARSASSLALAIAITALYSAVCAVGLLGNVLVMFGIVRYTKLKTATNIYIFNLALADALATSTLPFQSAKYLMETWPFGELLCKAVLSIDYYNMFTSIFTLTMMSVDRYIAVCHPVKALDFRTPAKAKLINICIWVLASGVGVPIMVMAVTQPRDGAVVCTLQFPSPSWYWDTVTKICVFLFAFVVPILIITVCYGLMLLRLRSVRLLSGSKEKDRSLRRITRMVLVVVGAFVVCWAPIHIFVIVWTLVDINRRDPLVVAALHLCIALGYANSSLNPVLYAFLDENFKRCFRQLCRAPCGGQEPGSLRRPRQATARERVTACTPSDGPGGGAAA
Particulars: 50 mM Tris-HCl pH 7.4, 35 °C, 45 min; read-out: DOR^a / Ki ± S.E.M.

A value given as a limit tells only on which side of the number the result lay.

T1 sequence (P41144 whole entry): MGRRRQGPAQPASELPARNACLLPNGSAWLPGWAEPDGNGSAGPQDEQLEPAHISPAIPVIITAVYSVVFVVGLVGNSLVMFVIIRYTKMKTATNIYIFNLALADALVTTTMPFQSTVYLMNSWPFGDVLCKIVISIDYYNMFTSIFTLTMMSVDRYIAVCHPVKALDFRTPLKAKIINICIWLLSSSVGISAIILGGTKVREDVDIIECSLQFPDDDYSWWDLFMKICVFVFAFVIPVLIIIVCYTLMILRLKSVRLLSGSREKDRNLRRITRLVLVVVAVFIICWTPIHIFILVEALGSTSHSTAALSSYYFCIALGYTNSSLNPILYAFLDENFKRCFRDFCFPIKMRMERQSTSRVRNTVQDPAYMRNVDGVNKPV
T2 sequence (P33535 whole entry): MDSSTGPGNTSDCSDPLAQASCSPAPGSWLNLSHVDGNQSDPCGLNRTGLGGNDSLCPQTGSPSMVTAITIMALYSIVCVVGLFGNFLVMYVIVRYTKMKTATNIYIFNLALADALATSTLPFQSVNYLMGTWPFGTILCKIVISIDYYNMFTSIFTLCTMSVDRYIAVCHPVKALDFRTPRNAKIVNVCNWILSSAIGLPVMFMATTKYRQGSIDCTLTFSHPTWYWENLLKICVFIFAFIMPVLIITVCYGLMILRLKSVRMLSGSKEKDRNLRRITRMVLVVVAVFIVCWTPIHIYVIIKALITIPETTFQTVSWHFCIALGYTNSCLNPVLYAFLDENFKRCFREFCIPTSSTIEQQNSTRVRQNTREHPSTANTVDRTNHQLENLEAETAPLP

For `Oc1ccc2c3c1O[C@H]1[C@@H](O)C=C[C@H]4[C@@H](C2)N(CCN2CCOCC2)CC[C@@]341` [9a], the results for the Ki (in assay [1]; at MOR (mu-opioid receptor); in assay [2]) were 20.3 ± 4.2 nM, 389 ± 17 nM and 25.3 ± 1.5 nM, respectively.

`Oc1ccc2c3c1O[C@H]1[C@@H](O)C=C[C@H]4[C@@H](C2)N(CCN2CCCCC2)CC[C@@]341` [9b]: the Ki was 138 ± 42.3 nM in assay [1], 436 ± 18.8 nM at MOR (mu-opioid receptor) and 44.9 ± 7.2 nM in assay [2].

`Oc1ccc2c3c1O[C@H]1[C@@H](O)C=C[C@H]4[C@@H](C2)N(CCN2CCCC2)CC[C@@]341` [9c]: the Ki in assay [1] was determined as 6.9 ± 4.6 nM; at MOR (mu-opioid receptor), 62.3 ± 2.6 nM; in assay [2] it was 34.1 ± 7.1 nM.

`O=C(CN1CC[C@]23c4c5ccc(O)c4O[C@H]2[C@@H](O)C=C[C@H]3[C@H]1C5)N1CCOCC1` [10a]: the Ki came out at 3.6 ± 1.9 nM in assay [1] and 394 ± 186 nM at MOR (mu-opioid receptor).

Turning to `O=C(CN1CC[C@]23c4c5ccc(O)c4O[C@H]2[C@@H](O)C=C[C@H]3[C@H]1C5)N1CCCCC1` [10b], the Ki on MOR (mu-opioid receptor) is 1500 ± 664 nM; in assay [2], more than 10000 nM.

As to `O=C(CN1CC[C@]23c4c5ccc(O)c4O[C@H]2[C@@H](O)C=C[C@H]3[C@H]1C5)N1CCCC1` [10c], the Ki in assay [1] amounted to 10.7 ± 7.7 nM; on MOR (mu-opioid receptor), 521 ± 218 nM; in assay [2], 839 ± 99.9 nM.

In the case of `O=C1CC[C@@]2(O)[C@H]3Cc4ccc(O)c5c4[C@@]2(CCN3CC(=O)N2CCOCC2)[C@H]1O5` [12a], the Ki worked out at 684 ± 32.7 nM on MOR (mu-opioid receptor) and 125 ± 39.6 nM in assay [2].

With `O=C1CC[C@@]2(O)[C@H]3Cc4ccc(O)c5c4[C@@]2(CCN3CC(=O)N2CCCCC2)[C@H]1O5` [12b], the values for the Ki (on MOR (mu-opioid receptor); in assay [2]) were 1490 ± 612 nM and 1140 ± 532 nM, respectively.

For the origin of these results see article PMC10660610 (Scientific Reports, 2023).
